Reference: patent publication US9403800B2, “Compounds for inhibition of cancer cell proliferation” (ChemRegen, Inc., priority 2012, dated 2016)

What was measured:
[1] = system: Wnt transcriptional activity; test: cell-based Wnt-luciferase reporter assay (SuperTOPFlash); details: for inhibition of Wnt transcriptional activity (in words): Wnt-luciferase reporter; for Relative potency for Wnt inhibition: relative to IWR-1, transfected HEK293A cells treated 12 hours, normalized to Renilla
Source text: “Hit” 1 (FIG. 1) was identified as a Wnt inhibitor in a high-throughput screen of a library of 74,000 compounds using a cell-based Wnt-luciferase reporter assay as a readout of Wnt transcriptional activity. […] Wnt transcriptional activity was monitored in HEK-293T cells using a luciferase-based Wnt reporter (SuperTOPFlash) stimulated by Wnt3a conditioned media.
Medicinal chemical refinement of “hit” 1 was undertaken to improve its potency, maintain non-toxicity, increase water solubility and improve bioavailability. The SAR refinement of functional activity of “hit” 1 on the inhibition of the Wnt pathway was determined using a cell-based Wnt-luciferase reporter assay (described above). with Renilla Luciferase was used as a normalization for transfection efficiency. 6-8 hours after transfection, transfected HEK293A cells were treated with 1 and each analog for 12 hours. Both firefly and renilla luciferase activities were measured using a plate reader. A library of compounds was tested to obtain an SAR for 1. Compound 1 and its analogs are synthesized by a two step synthesis, Scheme 1.
Signaling was tested using a standard luciferase response system for canonical Wnt/β-catenin/TCF signaling. Briefly, we used a cell line that had been transfected with a luciferase reporter gene under the control of the response element of a transcription factor that is activated by association with β-catenin and is the target of canonical Wnt signaling.

[2] = chemical stability by HPLC; type: physicochemical; details: determined by HPLC
Source text: As observed from the data presented in Table 1, both free bases and salts gave significant Wnt inhibition potency. On the basis of the lipophilic character of many of the analogs, it is likely interaction site on the molecular target has a lipophilic character although polar interactions are apparent. To increase solubility, were possible, hydrochloride salts of the sulfonamides were synthesized. To afford appropriate bioavailability, sulfonamides were synthesized with chemical and metabolic stability in mind.

pharmacokinetics in rats = details: rat, in vivo
[3] = system: canonical Wnt target genes, Cyclin D1 (CCND1), Axin2 (AXIN2), and c-Myc (c-MYC); test: mRNA levels of canonical Wnt target genes in HEK293T and SW480 cells; type: cell-based; details: HEK293T and SW480 colorectal cells
[4] = system: SW480 colorectal cancer model cell line; test: SW480 cell proliferation and cell cycle (InCell 1000); type: cell-based, human
Source text: Previous studies have shown that the Wnt signaling pathway drives cellular proliferation of a number of cancers through up-regulation of genes for several proteins crucial for cell division including Cyclin D1, c-Myc, etc. and treatment of cancer cells with 1 or analogs decreases cellular proliferation. Accordingly, we examined the effect of 1 and analogs on cell proliferation of human cancer cell lines. […] The results were confirmed by studying the effects of 1 on SW480 human colon cell cycle determined by cell images captured by InCell 1000.

Row | Structure (SMILES) | Relative potency for Wnt inhibition [1] | also measured
1 | O=C1CCCN1c1ccc(S(=O)(=O)N2CCCC3CCCCC32)cc1 (stereo not shown) [Compound 3, 1-(4-(octahydroquinolin-1(2H)-ylsulfonyl)phenyl)pyrrolidin-2-one] | – | inhibition of Wnt transcriptional activity (in words) [1]: potent inhibition of Wnt
2 | O=C1CCCN1c1ccc(S(=O)(=O)N2CCCc3cc(Cl)ccc32)cc1 [Compound 5, 1-(4-(6-chloro-3,4-dihydroquinolin-1(2H)-ylsulfonyl)phenyl)pyrrolidin-2-one] | ++++ (between 60 to 80% potency compared to IWR-1) | –
3 | O=C1CCCN1c1ccc(S(=O)(=O)N2CCCc3cc(F)ccc32)cc1 [Compound 6, 1-(4-(6-fluoro-3,4-dihydroquinolin-1(2H)-ylsulfonyl)phenyl)pyrrolidin-2-one] | +++ (between 40 to 60% potency compared to IWR-1) | chemical half life [2]: No change
4 | COc1ccc2c(c1)CCCN2S(=O)(=O)c1ccc(N2CCCC2=O)cc1 [Compound 7, 1-(4-(6-methoxy-3,4-dihydroquinolin-1(2H)-ylsulfonyl)phenyl)pyrrolidin-2-one] | ++++ (between 60 to 80% potency compared to IWR-1) | half-life [2]: 37 h
5 | O=C1CCCN1c1ccc(S(=O)(=O)N2CCCc3cc(C(F)(F)F)ccc32)cc1 [Compound 8, 1-(4-(6-(trifluoromethyl)-3,4-dihydroquinolin-1(2H)-ylsulfonyl)phenyl)-pyrrolidin-2-one] | +++ (between 40 to 60% potency compared to IWR-1) | –
6 | CC(C)(C)c1ccc2c(c1)CCCN2S(=O)(=O)c1ccc(N2CCCC2=O)cc1 [Compound 9, 1-(4-(6-tert-butyl-3,4-dihydroquinolin-1(2H)-ylsulfonyl)phenyl)pyrrolidin-2-one] | + (<20% potency compared to compound IWR-1) | –
7 | Cc1ccc2c(c1)N(S(=O)(=O)c1ccc(N3CCCC3=O)cc1)CCC2 [Compound 11, 1-(4-(7-methyl-3,4-dihydroquinolin-1(2H)-ylsulfonyl)phenyl)pyrrolidin-2-one] | ++++ (between 60 to 80% potency compared to IWR-1) | –
8 | O=C1CCCN1c1ccc(S(=O)(=O)N2CCc3ccccc3C2)cc1 [Compound 12, 1-(4-(3,4-dihydroisoquinolin-2(1H)-ylsulfonyl)phenyl)pyrrolidin-2-one] | ++++ (between 60 to 80% potency compared to IWR-1) | –
9 | Cc1ccc2c(c1)CCN(S(=O)(=O)c1ccc(N3CCCC3=O)cc1)C2 [Compound 13, 1-(4-(6-methyl-3,4-dihydroisoquinolin-2(1H)-ylsulfonyl)phenyl)pyrrolidin-2-one] | + (<20% potency compared to compound IWR-1) | –
10 | Cc1ccc2c(c1)CN(S(=O)(=O)c1ccc(N3CCCC3=O)cc1)CC2 [Compound 14, 1-(4-(7-methyl-3,4-dihydroisoquinolin-2(1H)-ylsulfonyl)phenyl)pyrrolidin-2-one] | +++ (between 40 to 60% potency compared to IWR-1) | –
11 | O=C1CCCN1c1ccc(S(=O)(=O)Nc2ccccc2)cc1 [Compound 17, 4-(2-oxopyrrolidin-1-yl)-N-phenylbenzenesulfonamide] | + (<20% potency compared to compound IWR-1) | –
12 | COc1ccccc1NS(=O)(=O)c1ccc(N2CCCC2=O)cc1 [Compound 18, N-(2-methoxyphenyl)-4-(2-oxopyrrolidin-1-yl)benzenesulfonamide] | + (<20% potency compared to compound IWR-1) | –
13 | O=C1CCCN1c1ccc(S(=O)(=O)Nc2ccccc2OC(F)(F)F)cc1 [Compound 19, 4-(2-oxopyrrolidin-1-yl)-N-(2-(trifluoromethoxy)phenyl)benzenesulfonamide] | + (<20% potency compared to compound IWR-1) | –
14 | O=C1CCCN1c1ccc(S(=O)(=O)Nc2cccc3ccccc23)cc1 [Compound 20, N-(naphthalen-1-yl)-4-(2-oxopyrrolidin-1-yl)benzenesulfonamide] | + (<20% potency compared to compound IWR-1) | –
15 | O=C1CCCN1c1ccc(S(=O)(=O)N2CCCCC2)cc1 [Compound 21, 1-(4-(piperidin-1-ylsulfonyl)phenyl)pyrrolidin-2-one] | + (<20% potency compared to compound IWR-1) | –
16 | CCC1CCCCN1S(=O)(=O)c1ccc(N2CCCC2=O)cc1 (stereo not shown) [Compound 22, 1-(4-(2-ethylpiperidin-1-ylsulfonyl)phenyl)pyrrolidin-2-one] | + (<20% potency compared to compound IWR-1) | –
17 | CCCN(c1ccccc1)S(=O)(=O)c1ccc(N2CCCC2=O)cc1 [Compound 23, 4-(2-oxopyrrolidin-1-yl)-N-phenyl-N-propylbenzenesulfonamide] | + (<20% potency compared to compound IWR-1) | –
18 | CCCCN(c1ccccc1)S(=O)(=O)c1ccc(N2CCCC2=O)cc1 [Compound 24, N-butyl-4-(2-oxopyrrolidin-1-yl)-N-phenylbenzenesulfonamide] | + (<20% potency compared to compound IWR-1) | –
19 | O=C1CCCCN1c1ccc(S(=O)(=O)N2CCCc3ccccc32)cc1 [Compound 25, 1-(4-(3,4-dihydroquinolin-1(2H)-ylsulfonyl)phenyl)piperidin-2-one] | + (<20% potency compared to compound IWR-1) | inhibition of Wnt transcriptional activity (in words) [1]: did not inhibit Wnt transcriptional activity
20 | CC(=O)N(C)c1ccc(S(=O)(=O)N2CCCc3ccccc32)cc1 [Compound 26, N-(4-(3,4-dihydroquinolin-1(2H)-ylsulfonyl)phenyl)-N-methylacetamide] | + (<20% potency compared to compound IWR-1) | –
21 | COC1CCN(c2ccc(S(=O)(=O)N3CCN(C)c4ccccc43)cc2)C1=O (stereo not shown) [Compound 27, 3-methoxy-1-(4-(4-methyl-3,4-dihydroquinoxalin-1(2H)-ylsulfonyl)phenyl)-pyrrolidin-2-one] | + (<20% potency compared to compound IWR-1) | –
22 | CN1CCN(S(=O)(=O)c2ccc(N3CCC(O)C3=O)cc2)c2ccccc21 (stereo not shown) [Compound 28, 3-hydroxy-1-(4-(4-methyl-3,4-dihydroquinoxalin-1(2H)-ylsulfonyl)phenyl)-pyrrolidin-2-one] | +++ (between 40 to 60% potency compared to IWR-1) | –
23 | CN1CCN(S(=O)(=O)c2ccc(N3CCCC3)cc2)c2ccccc21 [Compound 31, 1-methyl-4-(4-(pyrrolidin-1-yl)phenylsulfonyl)-1,2,3,4-tetrahydroquinoxaline] | ++++ (between 60 to 80% potency compared to IWR-1) | bioavailability (pharmacokinetics in rats): 11%
24 | CN1CCN(S(=O)(=O)c2ccc(N3CCC=N3)cc2)c2ccccc21 [Compound 32, 1-(4-(4,5-dihydro-1H-pyrazol-1-yl)phenylsulfonyl)-4-methyl-1,2,3,4-tetrahydroquinoxaline] | ++++ (between 60 to 80% potency compared to IWR-1) | –
25 | CN1CCN(S(=O)(=O)c2ccc(-n3cccn3)cc2)c2ccccc21 [Compound 33, 1-(4-(1H-pyrazol-1-yl)phenylsulfonyl)-4-methyl-1,2,3,4-tetrahydroquinoxaline] | + (<20% potency compared to compound IWR-1) | –
26 | CN1CCN(S(=O)(=O)c2ccc(N3CCC(O)C3)cc2)c2ccccc21 (stereo not shown) [Compound 34, 1-(4-(4-methyl-3,4-dihydroquinoxalin-1(2H)-ylsulfonyl)phenyl)pyrrolidin-3-ol] | +++ (between 40 to 60% potency compared to IWR-1) | –
27 | CC(=O)c1ccc(NN=C(C(N)=O)C2=NC(C)(C)Cc3ccccc32)cc1 [IQ-1] | – | mRNA levels of canonical Wnt target genes CCND1, AXIN2, c-MYC [3]: enhanced mRNA expression
28 | O=C(Nc1cccc2cccnc12)c1ccc(N2C(=O)[C@@H]3[C@H](C2=O)[C@@H]2C=C[C@H]3C2)cc1 [IWR-1, reference compound] | – | cell cycle distribution ([4]; SW480 cells, InCell 1000 images): did not alter either the rate of SW480 cell proliferation or cell cycle; cancer cell proliferation (in words) ([4]; SW480 colon cancer cell line): did not alter either the rate of SW480 cell proliferation or cell cycle; mRNA levels of canonical Wnt target genes CCND1, AXIN2, c-MYC [3]: decreased mRNA expression
